Literature values as cited in patent US20110142834A1, “TREATMENT OF HEARING AND BALANCE IMPAIRMENTS USING COMPOUNDS HAVING ERYTHROPOIETIN ACTIVITY” (Edison Pharmaceuticals, Inc., priority 2008, published 2011).

[H]/N=C(/N)N[C@H]1[C@H](O)[C@@H](O)[C@H](O[C@@H]2O[C@@H](C)[C@](O)(C=O)[C@H]2O[C@@H]2O[C@@H](CO)[C@H](O)[C@@H](O)[C@@H]2NC)[C@@H](N/C(N)=N\[H])[C@@H]1O [streptomycin]
incidence of vestibular impairment (1 gram per day): 25%
patients displaying some vestibular impairment (2 grams daily for 60 to 120 days): ~75%
